Where two headings read alike, the source gives them in different places.
What was measured:
[1] = Quantum yield of selected dyes (Table 3); type: physicochemical
[2] = pH titration of fluorophores (pKa determination); type: physicochemical
Method: The dye of interest is first dissolved in a series of buffers that have each been calibrated using a pH meter. Acetate buffers are typically used in the range of pH 4-6, and phosphate buffers in the pH range 6-8. Absorption measurements are made using solutions that are approximately 10 μM in concentration, and fluorescence measurements are made using solutions that are approximately 1 μM in concentration. The absorption or emission data is then plotted versus pH to determine pKa values.

[3] = Photobleaching during illumination in a fluorometer; type: physicochemical; details: after 33 minutes of illumination in a fluorometer at the wavelength of maximum excitation
Method: | *Percent decrease in fluorescence intensity after 33 minutes of | illumination in a fluorometer at the wavelength of maximum excitation.

[4] = test system: alkaline phosphatase; experiment: Fluorogenic substrate assay with alkaline phosphatase; type: biochemical; details: pH 10.4 glycine buffer with 1 mM MgCl2, FIG. 4
Method: (§1) The utility of Compound 6 as a substrate for both alkaline and acid phosphatase is compared with the utility of the non-fluorinated analog, 4-methylumbelliferyl phosphate (MUP).
(§2) 1) Fluorescence yield: For an accurate comparison, the concentrations of the two substrates (initially approximately 10 mM) are matched by normalizing the absorbance of each substrate solution at 319 nm (pH 10) to a value of 0.52 (assuming the extinction coefficient of each substrate is approximately equivalent). The matched samples are then diluted 1:10 into excess enzyme buffer (10 units/mL), and the resulting fluorescence signal is recorded as a function of time (excitation 360 nm, emission 450 nm). The fluorescence yield obtained with acid phosphatase (pH 4.8, citrate buffer) is about 10 times greater when using Compound 6 than that obtained using MUP after one hour (FIG. 4). […] Using alkaline phosphatase (pH 10.4, glycine buffer with 1 mM MgCl2) the fluorescence yield obtained using Compound 6 is approximately 25% greater than that obtained using MUP (FIG. 4);

[5] = test system: acid phosphatase; experiment: Fluorogenic substrate assay for acid phosphatase activity; type: biochemical
Method: as §1, §2
As above, the substrate samples are matched in concentration by normalizing absorbance values at 316 nm to a value of 0.525, then diluting 1:10.
3) Enzyme sensitivity: Serial dilutions of acid phosphatase are incubated with 50 μM of each substrate for 1 hour at pH 5, then fluorescence intensity at 460 nm is collected following 360 nm excitation.

[6] = biological target: β-galactosidase (Escherichia coli, UniProt P00722); experiment: Fluorogenic substrate assay for β-galactosidase activity; type: biochemical; details: for Km: read-out: Km (Michaelis-Menton constant), 0.01 units β-galactosidase, FIG. 9
Method: The utility of Compound 9 as a substrate for β-galactosidase is compared with the utility of the non-fluorinated analog, 4-methylumbelliferyl β-D-galactoside (MUG).
1) Fluorescence yield: For an accurate comparison, the concentrations of the two substrates (initially approximately 10 mM) are matched by normalizing the absorbance of each substrate solution at 316 nm (pH 8.3; 20 mM sodium bicarbonate) to a value of 0.5 (assuming the extinction coefficient of each substrate is approximately equivalent). The matched samples are then diluted 1:10 into β-galactosidase buffer pH 7.0, and 2 units enzyme/mL are added. The use of Compound 9 as an enzyme substrate produces an approximately 8-fold signal enhancement over the use of MUG, when the fluorescence is measured at the reaction pH. […] However, even after optimization, the signal derived using Compound 9 (at pH 7.0) is still approximately 4-fold greater than that obtained using MUG (at pH 10).
2) Km determination: In a series of experiments, increasing amounts of each substrate are incubated with 0.01 units of β-galactosidase for 1 hour. The resulting fluorescence is measured by exciting at 360 nm, and the emission is collected at 460 nm.
3) Reaction rate: The fluorescence yield is measured at high substrate concentrations (50 μM) (relative to low enzyme concentration (0.01 units/mL)) over the course of 1 hour to compare reaction rates.
4) Enzyme sensitivity: Serial dilutions of […] are incubated with 50 μM of each substrate for 1 hour at pH 7, then fluorescence intensity at 460 nm is collected (following 360 nm excitation).

[7] = 1 hour, excitation 360 nm, emission 460 nm

β-galactosidase, sequence (P00722 2-1024): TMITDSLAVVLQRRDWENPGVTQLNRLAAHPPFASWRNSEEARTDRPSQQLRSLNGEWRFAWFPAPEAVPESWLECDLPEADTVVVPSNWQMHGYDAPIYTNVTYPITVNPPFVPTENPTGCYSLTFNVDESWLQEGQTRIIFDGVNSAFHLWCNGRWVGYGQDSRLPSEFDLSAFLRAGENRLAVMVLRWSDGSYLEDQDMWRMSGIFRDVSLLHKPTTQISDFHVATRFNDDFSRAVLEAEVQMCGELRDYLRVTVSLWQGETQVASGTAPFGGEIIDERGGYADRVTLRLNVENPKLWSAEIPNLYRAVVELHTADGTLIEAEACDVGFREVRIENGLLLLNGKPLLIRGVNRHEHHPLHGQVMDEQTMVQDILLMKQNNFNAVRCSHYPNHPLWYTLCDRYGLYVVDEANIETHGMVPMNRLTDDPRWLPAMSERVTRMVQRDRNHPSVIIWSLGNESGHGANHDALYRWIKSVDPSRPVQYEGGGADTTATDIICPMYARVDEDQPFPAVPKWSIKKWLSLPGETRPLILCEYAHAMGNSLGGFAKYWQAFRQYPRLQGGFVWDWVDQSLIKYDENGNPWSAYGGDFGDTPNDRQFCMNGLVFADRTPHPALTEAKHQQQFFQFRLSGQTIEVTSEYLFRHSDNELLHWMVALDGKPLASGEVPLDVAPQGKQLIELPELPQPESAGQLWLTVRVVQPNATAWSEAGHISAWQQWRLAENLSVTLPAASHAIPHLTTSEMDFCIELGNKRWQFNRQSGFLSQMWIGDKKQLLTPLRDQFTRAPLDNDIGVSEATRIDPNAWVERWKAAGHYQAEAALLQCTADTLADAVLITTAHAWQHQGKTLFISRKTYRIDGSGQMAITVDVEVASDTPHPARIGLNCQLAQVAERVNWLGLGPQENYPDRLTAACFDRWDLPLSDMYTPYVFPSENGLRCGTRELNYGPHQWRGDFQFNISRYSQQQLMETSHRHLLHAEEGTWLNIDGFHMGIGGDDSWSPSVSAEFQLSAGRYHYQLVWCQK

Quantum Yield (pH 9) [1]	pKa [2]	Photobleaching: percent decrease in fluorescence intensity [3] [%]	Structure (SMILES)	other results
0.78	5.9	12	Cc1cc(=O)oc2cc(O)cc(F)c12	–
0.34	7.3	31	O=c1cc(C(F)(F)F)c2ccc(O)cc2o1	–
0.54	4.2	–	Cc1cc(=O)oc2c(F)c(O)c(F)c(F)c12	–
0.44	5.7	18	O=c1cc(C(F)(F)F)c2cc(F)c(O)cc2o1	–
0.64	6.4	20	Cc1cc(=O)oc2cc(O)c(F)cc12	–
–	~ 7.4	–	Cc1c(CC(=O)O)c(=O)oc2cc(O)ccc12 [7-hydroxy-4-methylcoumarin-3-acetic acid]	–
–	~ 6.2	–	Cc1c(CC(=O)O)c(=O)oc2c(F)c(O)c(F)cc12 [Compound 11, 6,8-difluoro-7-hydroxy-4-methylcoumarin-3-acetic acid]	–
0.23	4.0	7	O=c1cc(C(F)(F)F)c2cc(F)c(O)c(F)c2o1 [Compound 20, 6,8-difluoro-7-hydroxy-4-trifluoromethylcoumarin]	–

Continued, compound first:

Structure (SMILES)	Quantum Yield (pH 9) [1]	pKa [2]	Photobleaching: percent decrease in fluorescence intensity [3] [%]	other results
Cc1cc(=O)oc2cc(O)ccc12 [7-hydroxy-4-methylcoumarin]	0.63	7.9	22	pKa ([2]; stated in Example 47 for the product of MUG deglycosylation): 7.8
Cc1cc(=O)oc2c(F)c(OP(=O)(O)O)c(F)cc12 [Compound 6, 6,8-difluoro-7-hydroxy-4-methylcoumarin phosphate, free acid]	–	–	–	Fluorescence yield, increase over MUP [4]: approximately 25%; Enzyme concentration detection threshold, fold lower than with MUP ([5]; acid phosphatase 0.00001 to 10 units/mL, 50 μM substrate, 1 hour, pH 5, FIGS. 6 and 7): approximately 10 fold; Initial reaction rate of hydrolysis compared with MUP ([5]; acid phosphatase 0.01 units/mL, large excess of substrate, pH 4.8 citrate buffer, FIG. 5): significantly higher; Fluorescence signal relative to MUP after raising both reaction solutions to pH 10 ([5]; acid phosphatase reaction at pH 4.8, then raised to pH 10): twice as large; Sensitivity to enzyme concentration compared with MUP after raising the pH to 10 ([5]; acid phosphatase, 50 μM substrate, 1 hour at pH 5, then pH 10): approximately twice as sensitive; Fluorescence yield relative to MUP ([5]; acid phosphatase, pH 4.8 citrate buffer, after one hour, excitation 360 nm, emission 450 nm, FIG. 4): approximately 10 times
Cc1cc(=O)oc2cc(O[C@@H]3O[C@H](CO)[C@H](O)[C@H](O)[C@H]3O)ccc12 [MUG, 4-methylumbelliferyl β-D-galactoside]	–	–	–	Km [6, 7]: ~60 µM
O=c1oc2c(F)c(O)c(F)cc2cc1-c1nc2ccccc2s1 [Compound 17, 3-benzothiazolyl-6,8-difluoro-7-hydroxycoumarin]	–	5.0	–	–
Cc1cc(=O)oc2c(F)c(O[C@@H]3O[C@H](CO)[C@H](O)[C@H](O)[C@H]3O)c(F)cc12 [Compound 9, 6,8-difluoro-7-hydroxy-4-methylcoumarin, β-D-galactopyranoside]	–	–	–	Reaction rate with β-galactosidase compared with MUG ([6]; 50 μM substrate, 0.01 units/mL enzyme, 1 hour, FIG. 10): react more rapidly; Enzyme concentration detection threshold, fold lower than with MUG ([6]; 50 μM substrate, 1 hour, pH 7, FIG. 11): approximately 10 fold; Km [6, 7]: ~25 µM; Fluorescence signal enhancement over MUG at the reaction pH ([6]; β-galactosidase 2 units/mL, pH 7.0, emission 460 nm, excitation 360 nm, FIG. 8): approximately 8 fold; Fluorescence signal (at pH 7.0) relative to MUG optimized at pH 10 ([6]; β-galactosidase 2 units/mL, MUG reaction raised to pH 10 with NaOH): approximately 4 fold
Cc1cc(=O)oc2c(F)c(O)c(F)cc12 [Compound 4, 6,8-difluoro-7-hydroxy-4-methylcoumarin]	0.89	–	5	pKa ([2]; Table 3): 4.7

— patent publication US5830912A, “Derivatives of 6,8-difluoro-7-hydroxycoumarin” (Molecular Probes, Inc., priority 1996, dated 1998)
